What was measured:
SARS-CoV-2 RNA synthesis = assay type: cell-based
EBOV trVLP RNA synthesis = assay type: cell-based, Ebola virus
X4 strain of HIV-1 = settings: cited from earlier work
SARS-CoV-2 = assay type: cell-based; settings: for IC50: read-out: VeroE6 IC50
Ce-FF = assay type: cell-based; settings: read-out: Ce-FF IC50
EBOV trVLP = assay type: cell-based, Ebola virus; settings: for IC50: read-out: EBOV trVLP IC50
[1] = human
EBOV infection = settings: in vivo; cited from earlier work
Covid-19 = settings: human, in vivo; cited from earlier work

With `CCCCCCCCCCCCCC(=O)O[C@H]1[C@@H](OC(=O)CCCCCCCCCCCCC)[C@](C#N)(c2ccc3c(N)ncnn23)O[C@@H]1CO[P@@](=O)(N[C@H](C)C(=O)OCC(CC)CC)Oc1ccccc1` [Compound 5a, ((2R,3R,4R,5R)-2-(4-Aminopyrrolo[2,1-f][1,2,4]triazin-7-yl)-2-cyano-5-((((((R)-1-(2-ethylbutoxy)-1-oxopropan-2-yl)amino)(phenoxy)phosphoryl)oxy)methyl)tetrahydro-furan-3,4-diyl ditetradecanoate] the “SARS-CoV-2 viral RNA synthesis” value (SARS-CoV-2 RNA synthesis) was “significant reduction in viral RNA synthesis was observed for all compounds apart from disubstituted compound 5a”.

For `CCCCCCCCCCCCCC(=O)O[C@@H]1[C@H](O)[C@@H](CO[P@@](=O)(N[C@H](C)C(=O)OCC(CC)CC)Oc2ccccc2)O[C@@]1(C#N)c1ccc2c(N)ncnn12` [Compound 3a, (2R,3R,4R,5R)-2-(4-Aminopyrrolo[2,1-f][1,2,4]triazin-7-yl)-2-cyano-5-((((((R)-1-(2-ethylbutoxy)-1-oxopropan-2-yl)amino)(phenoxy)phosphoryl)oxy)methyl)-4-hydroxytetra-hydrofuran-3-yl tetradecanoate], the “SARS-CoV-2 viral RNA synthesis” value (SARS-CoV-2 RNA synthesis) was “significant reduction in viral RNA synthesis” and the “EBOV trVLP viral RNA synthesis” value (EBOV trVLP RNA synthesis) was “significant reduction in viral RNA synthesis”.

For `CCCCCCCCCCCCCC(=O)OC[C@@H]1O[C@H](n2cc(F)c(N)nc2=O)CS1` [5′-O-tetradecanoyl derivative of FTC], the “fold more activity than FTC” value (X4 strain of HIV-1) is listed as 19 fold.

“(2R,3R,4R,5R)-2-(4-Aminopyrrolo[2,1-f][1,2,4]triazin-7-yl)-2-cyano-5-((((((R)-1-(2-ethylbutoxy)-1-oxopropan-2-yl)amino)(phenoxy)phosphoryl)oxy)methyl)tetrahydrofuran-3,4-diyl ditetradecanoate [Compound 5b]” showed a CC50 (Vero E6 cells) greater than 50 µM, an IC50 (SARS-CoV-2) greater than 50 µM and a CC50 (Huh-7 cells) greater than 50 µM. The “EBOV trVLP viral RNA synthesis” value (EBOV trVLP RNA synthesis) was “significant reduction in viral RNA synthesis was observed for all compounds apart from disubstituted compound 5b”, the IC50 (Ce-FF) was greater than 50 µM and the “activity against EBOV trVLP” value (EBOV trVLP) was “no inhibitory activity”. For the same molecule, the IC50 (EBOV trVLP) was greater than 50 µM.

With `CCC(CC)COC(=O)[C@@H](C)N[P@](=O)(OC[C@H]1O[C@@](C#N)(c2ccc3c(N)ncnn23)[C@H](O)[C@@H]1OC(=O)CCCCCCCCCCCN=[N+]=[N-])Oc1ccccc1` [Compound 4c, (2R,3S,4R,5R)-5-(4-Aminopyrrolo[2,1-f][1,2,4]triazin-7-yl)-5-cyano-2-((((((R)-1-(2-ethylbutoxy)-1-oxopropan-2-yl)amino)(phenoxy)phosphoryl)oxy)methyl)-4-hydroxy-tetrahydrofuran-3-yl-12-azidododecanoate] the “active triphosphate metabolite observed at 8 h” value [1] was 11.3%, the “active triphosphate metabolite observed at 12 h” value [1] was 10.04% and the “active triphosphate metabolite observed at 24 h” value [1] was 19.01%.

For `CCCCCCCCCCOCCC(=O)O[C@H]1[C@@H](O)[C@](C#N)(c2ccc3c(N)ncnn23)O[C@@H]1CO[P@@](=O)(N[C@H](C)C(=O)OCC(CC)CC)Oc1ccccc1` [Compound 4b, (2R,3S,4R,5R)-5-(4-Aminopyrrolo[2,1-f][1,2,4]triazin-7-yl)-5-cyano-2-((((((R)-1-(2-ethylbutoxy)-1-oxopropan-2-yl)amino)(phenoxy)phosphoryl)oxy)methyl)-4-hydroxy-tetrahydrofuran-3-yl-3-(decyloxy)propanoate], the “SARS-CoV-2 viral RNA synthesis” value (SARS-CoV-2 RNA synthesis) was “significant reduction in viral RNA synthesis”, the “EBOV trVLP viral RNA synthesis” value (EBOV trVLP RNA synthesis) was “significant reduction in viral RNA synthesis” and the “activity against EBOV trVLP” value (EBOV trVLP) was “comparable activity with RDV”.

“(2R,3R,4R,5R)-2-(4-Aminopyrrolo[2,1-f][1,2,4]triazin-7-yl)-2-cyano-5-((((((R)-1-(2-ethylbutoxy)-1-oxopropan-2-yl)amino)(phenoxy)phosphoryl)oxy)methyl)-4-hydroxytetra hydrofuran-3-yl palmitate [Compound 3c]” showed a CC50 (Vero E6 cells) greater than 50 µM, an IC50 (SARS-CoV-2) of 4.6 µM and a CC50 (Huh-7 cells) of 27 µM. For the same molecule, the IC50 (Ce-FF) was greater than 50 µM and the IC50 (EBOV trVLP) was 0.5 µM.

For `CCC(CC)COC(=O)[C@H](C)N[P@](=O)(OC[C@H]1O[C@@](C#N)(c2ccc3c(N)ncnn23)[C@H](O)[C@@H]1O)Oc1ccccc1` [RDV, remdesivir, reference compound], the “active triphosphate metabolite observed at 12 h” value [1] was “approximately 22.2%”, the “active triphosphate metabolite observed at 24 h” value [1] was 26.3% and the “degradation after 1 h” value [1] was “around 13%”. The “SARS-CoV-2 viral RNA synthesis” value (SARS-CoV-2 RNA synthesis) was “significant reduction in viral RNA synthesis”, the mortality (EBOV infection) was 53% and the “EBOV trVLP viral RNA synthesis” value (EBOV trVLP RNA synthesis) was “significant reduction in viral RNA synthesis”. For the same molecule, the “median time to recovery” value (Covid-19) was 11 days and the mortality rate (Covid-19) was 7.1%.

With `CCCCCCCCCCOCCC(=O)O[C@@H]1[C@H](O)[C@@H](CO[P@@](=O)(N[C@H](C)C(=O)OCC(CC)CC)Oc2ccccc2)O[C@@]1(C#N)c1ccc2c(N)ncnn12` [Compound 3b] the “activity against EBOV trVLP” value (EBOV trVLP) was “comparable with RDV”.

In the case of `CCCCCCCCCCOCCC(=O)O` [4-Oxatetradecanoic acid, reference compound], the “anti-SARS-CoV-2 activity in Vero E6 cells” value (shortened to “anti-SARS-CoV-2 activity”) (SARS-CoV-2) is reported as “did not exhibit any anti-SARS-CoV-2 activity” and the “activity against EBOV trVLP” value (EBOV trVLP) is reported as “no inhibitory activity”.

With `CCSCCCCCCCCCCCC(=O)O` [12-thioethyldodecanoic acid, reference compound] the “anti-SARS-CoV-2 activity” value (SARS-CoV-2) was “did not exhibit any anti-SARS-CoV-2 activity” and the “activity against EBOV trVLP” value (EBOV trVLP) was “no inhibitory activity”.

In the case of `CCSCCCCCCCCCCCC(=O)O[C@@H]1[C@H](O)[C@@H](CO[P@@](=O)(N[C@H](C)C(=O)OCC(CC)CC)Oc2ccccc2)O[C@@]1(C#N)c1ccc2c(N)ncnn12` [Compound 3e], the “activity against EBOV trVLP” value (EBOV trVLP) is reported as “comparable with RDV”.

In the case of `[N-]=[N+]=NCCCCCCCCCCCC(=O)O` [12-Azidododecanoic acid, reference compound], the “anti-SARS-CoV-2 activity” value (SARS-CoV-2) is reported as “did not exhibit any anti-SARS-CoV-2 activity” and the “activity against EBOV trVLP” value (EBOV trVLP) is reported as “no inhibitory activity”.

For `CCCCCCCCCCCCCC(=O)O` [Myristic acid, reference compound], the “anti-SARS-CoV-2 activity” value (SARS-CoV-2) was “did not exhibit any anti-SARS-CoV-2 activity” and the “activity against EBOV trVLP” value (EBOV trVLP) was “no inhibitory activity”.

B1: MAB114 (antibody, chains of the INN, looked up, V domains shown)
VH: EVQLVESGGGLIQPGGSLRLSCAASGFALRMYDMHWVRQTIDKRLEWVSAVGPSGDTTYADSVKGRFAVSRENAKNSLSLQMNSLTAGDTAIYYCVRSDRGVAGLFDSWGQGILVTVSS
VL: DIQMTQSPSSLSASVGDRITITCRASQAFDNYVAWYQQRPGKVPKLLISAASALHAGVPSRFSGSGSGTHFTLTISSLQPEDVATYYCQNYNSAPLTFGGGTKVEIK
For B1, the mortality (EBOV infection) is given as 35%.

Source: paper PMC8454092 (European Journal of Medicinal Chemistry, 2021)
